Source: patent US4800201A, “1,4-thiazine derivative, and cardiotonic agent comprising it as effective component” (Zenyaku Kogyo Kabushiki Kaisha, priority 1984, dated 1989)

Assays:
[1] = test system: isolated auricule; test: Effect on isolated auricule (Pharmacological Test 2, Table 2); set-up: species or system guinea pig (male Hartley); settings: 3×10^-4 mole, 30°±1° C., recording 5 minutes; for activation at 300 µM: Cavia porcellus, 5 min, read-out: Increase in heart rate
Description: Effect on isolated auricule was tested according to the method of L. J. Mcleod described in Pharmacological Experiments on Intact Preparations, pages 112-115 (1970). A 7-weeks-old male Hartley guinea pig (having body weight of about 350 g) was killed by a blow on the head. The heart was cut out, and all the tissues except for the auricule were cut away in Ringer-Locke solution (prepared by adding distilled water for injection to 9.0 g of sodium chloride, 0.25 g of potassium chloride, 0.15 g of calcium chloride and 1.0 g of glucose so that the total amount was 1000 ml). One of cotton threads, which were tied to each tip of the auricule, is attached to Magnus' bath and the other to the force displacement pickup. The Magnus' bath was maintained at 30°±1° C. through which oxygen gas was bubbled. When the rhythmic movement and contraction of cardiac muscle became constant, recording by the pen-writing oscillograph was started. After 1 minute, sample compound was injected and recording was conducted for 5 minutes. After completion of recording, the isolated auricule was washed with Ringer-Locke solution until the rhythmic movement and contraction of cardiac muscle became constant. After 30 minutes, recording by the pen-writing oscillograph was started again. In this test, corresponding concentration of each sample was 3×10^-4 mole.

[2] = test system: isolated left atrium of guinea pig; test: Effect on isolated left atrium of guinea pig (Pharmacological Test 1, Table 1); set-up: species or system guinea pig (male Hartley); settings: 1×10^-4 mole, electrically stimulated 0.5 cps, 30° to 32° C.
Description: Effect on isolated left atrium of guinea pig was tested according to the method described in Basic Lectures of Medicine Development, Volume V, Pharmacological Test Methods, Part 2, page 534 (1971) published by Chizin Shokan Kabushiki Kaisha in Japan. A 7-weeks-old male Hartley guinea pig (having body weight of about 350 g) was stunned by a blow on the head. The heart was cut out, and the left atrium was taken out in Krebs-Henseleit solution (prepared by adding distilled water for injection to 6.92 g of sodium chloride, 0.35 g of potassium chloride, 0.28 g of calcium chloride, 0.29 g of magnesium sulfate, 0.16 g of mono-basic potassium phosphate, 2.1 g of sodium bicarbonate and 1.8 g of glucose so that the total amount was 1000 ml) which was sufficiently bubbled with oxygen gas. The isolated left atrium was suspended in Magnus' bath at 30° to 32° C. and isometric contraction was recorded by the pen-writing oscillograph through the strain pressure amplifier connected to the force displacement pickup.
The atrium was stimulated electrically at 0.5 cps for 5 msec under a voltage of 20% above threshold. The nutritive liquid was Krebs-Henseleit solution through which 95% oxygen gas and 5% carbon dioxide was blown. Effect of each sample was tested 60 to 90 minutes after stimulation at which the generated tension became stable. In this test, corresponding concentration of each sample was 1×10^-4 mole.

[3] = Acute toxicity, Litchfield-Wilcoxon method (Pharmacological Test 3, Table 3); settings: mouse, in vivo, ip; intraperitoneal injection, 6-weeks-old male ddY mice
Description: The acute toxicity was determined according to the Litchfield-Wilcoxon method, J. Pharm. Exp. Ther., 96, 99 […] using 6-weeks-old male ddY mice (having body weight of 19-24 g) while administrating the sample compound in intraperitonial injection.

SMILES	Tension increment [1]	activation at 300 µM [1]	Tension increment [2]	LD50 [3]
CC1=C(c2ccnc3ccccc23)SCC(=O)N1 [drawing 25]	190 mg	2.2%		
CC1=C(c2ccncc2C#N)SCC(=O)N1			214 ± 56 mg	
CC1=C(c2ccncc2Cl)SCC(=O)N1			426 ± 56 mg	
CC1=C(c2ccncc2)SCC(=O)N1 [drawing 26]	250 mg	9.4%		
CC1=C(c2ccnc3ccccc23)SCC(=O)N1 [drawing 13]			300 ± 125 mg	
CNC1SC(c2ccncc2)=C(C)NC1=O (stereo not shown) [5-methyl-2-methylamino-6-(4-pyridinyl)-2H-1,4-thiazin-3(4H)-one]			233 ± 46 mg	
CC1=C(c2ccncc2C=O)SCC(=O)N1			278 ± 56 mg	
CC1=C(c2ccncc2)SC(C)C(=O)N1 (stereo not shown) [2,5-dimethyl-6-(4-pyridinyl)-2H-1,4-thiazin-3(4H)-one]	158 mg	2%	780 ± 93 mg	230 mg/kg
CC1=C(c2ccncc2)SC(N2CCOCC2)C(=O)N1 (stereo not shown)			207 ± 47 mg	
CC1=C(c2ccnc3ccccc23)SCC(=O)N1 [drawing 29]				270 mg/kg
CC1=C(c2ccncc2)SC(c2ccc(O)cc2)C(=O)N1 (stereo not shown)			230 ± 92 mg	
CC1=C(c2ccncc2)SCC(=O)N1 [drawing 30]				275 mg/kg
CCC1SC(c2ccncc2)=C(C)NC1=O (stereo not shown) [2-ethyl-5-methyl-6-(4-pyridinyl)-2H-1,4-thiazin-3(4H)-one]	226 mg	2.4%	925 ± 32 mg	130 mg/kg
CC1=C(c2ccnnc2)SCC(=O)N1			225 ± 123 mg	
